Source: US20250114325A1 (JIANGSU PROVINCE HOSPITAL OF CHINESE MEDICINE, priority 2022, published 2025)

Experiments:
Assay type in all cases: cell-based, human
Hela cells [1] = assay: Cell proliferation experiment (CCK-8 cell viability); conditions: single agent, 24 h, 48 h, 72 h, dose and time-dependent
Protocol: (§1) Assay of cell viability by CCK-8 kit: Cells (cell density: 1000 cells/well) were inoculated in a 96-well plate and cultured for 24 hours. […] Cell proliferation was detected using Cell Counting Kit-8 (CCK-8).

SiHa cells [2] = assay: as above; conditions: single agent, 24 h, 48 h, 72 h, dose and time-dependent
Protocol: as §1

Hela cells [3] = assay: Annexin V-AF647/PI flow cytometry apoptosis assay; conditions: added to Atr-I (BzATP 100 μM or JNJ 20 μM); 48 h
Protocol: (§2) The cell lines selected were human cervical cancer Hela (HPV18+) and Siha (HPV16+) cell lines.
(§3) The proportion of apoptotic cells was measured using the Annexin V-AF647/PI Apoptosis Kit (E-CK-A213; Elabscience Biotechnology, Wuhan, China). The cells in logarithmic growth phase were used and seeded in a culture bottle at a suspension density of 1×10^6 cells/mL, and then cultured in a CO2 incubator for 24 h. […] Subsequently, the cells were re-suspended in 500 μL of the binding buffer. After adding 5 μL of Annexin V-AF647 and 5 μL of PI to the cell suspension, respectively, the cell cycle was assayed using FACSCalibur flow cytometry (BD Biosciences, San Jose, CA, USA). The data were analyzed with FlowJo software (FlowJo, Ashland, OR, USA).

SiHa cells [4] = assay: Annexin V-AF647/PI flow cytometry apoptosis assay; conditions: added to Atr-I (BzATP 100 μM or JNJ 20 μM); 48 h
Protocol: as §2, §3

For `Nc1ncnc2c1ncn2[C@@H]1O[C@H](COP(=O)(O)OP(=O)(O)OP(=O)(O)O)[C@@H](OC(=O)c2ccc(C(=O)c3ccccc3)cc2)[C@H]1O` [BzATP], the “inhibition of growth of Hela cells” value (Hela cells [1]) was “significantly inhibited the growth”, the “inhibition of growth of SiHa cells” value (SiHa cells [2]) was “significantly inhibited the growth” and the “effect on Atr-I-induced apoptosis in Hela cells” value (Hela cells [3]) was “inhibited Atr-I-induced apoptosis in Hela cells”. The “effect on Atr-I-induced apoptosis in SiHa cells” value (SiHa cells [4]) was “had no effect on Atr-I-induced apoptosis in SiHa cells”.
